Data published in patent US20240148425A1, “COSMETIC COMPOSITION INTENDED FOR THE TREATMENT OF SKIN HYPERPIGMENTATION AND TREATMENT METHOD USING SAID COMPOSITION” (priority 2021, published 2024).

What was measured:
keratinocytes = experiment: viability of keratinocytes by protein assay; format: cell-based; details: certain temperatures, especially +05° C.; patent attributes it to quiescence bias
Description: Other tests conducted within the scope of the development of the invention have shown that an experiment bias existed in the measurement of the viability of the keratinocytes by protein assay.

[1] = system: IL-1β marker in keratinocytes; experiment: IL-1β irritation marker in keratinocytes after cryogenic gas sequences; format: cell-based; details: +14° C. with 4 successive oscillations vs subzero dose (EC16, −16° C.), same level of keratinocyte viability
Description: Finally, on the other constituent cells of the epidermis (keratinocytes), experiments have shown that oscillations within an above-zero temperature range caused a lesser effect on certain irritation markers compared to the application of a single cryogenic gas within a subzero temperature range while causing an identical reduction in the viability of the keratinocytes (see FIG. 3). […] Likewise, since the irritation is directly related to the mortality induced by keratinocytes, it could have been thought that for an identical reduction in viability, the irritation would be identical.
FIG. 3 is a graph showing the variation over time of the (IL-1β) marker of the irritation for keratinocytes subjected to two sequences making it possible to achieve the same level of viability, a sequence (EC16) located in a subzero temperature range (−16° C.) and the other sequence (EC14) in an above-zero temperature range (+14° C.).
The development of the invention has given rise to numerous experiments relating to the optimization of atomization sequences. These sequences were tested on cell culture models in order to determine, in particular, their incidence on the cell viability of the melanocytes and keratinocytes. The main markers of irritation were also measured.

[2] = system: actinic lentigines on the back of hands; details: cooling cycle of 3 to 5 seconds; biopsies 3 weeks after the treatment; cited from earlier work
skin pigmentation = details: brief 5-second cooling by atomizing liquid nitrogen at −196° C., margin 1 to 5 mm beyond the wound; cited from earlier work

Description for melanocytes: By way of example, when the viability of the melanocytes is compared between the application of a dose of atomized cryogenic gas making it possible to reach a target temperature of −10° C. (sequence referenced EC-10) on the epidermis from its normal starting temperature (34° C.) in an environment at room temperature (23° C.), and the application of a dose making it possible to reach a temperature of 0° C.
Therefore, experiments (cell cultures-in vitro) were conducted in the context of the invention to determine the effects of different temperatures (+10, +5, 0, −5, −10, −15 and 16° C.) on the mortality of the melanocytes. […] A control group of cells was tested at +23° C. After 24 h of treatment, the cell mortality was quantified by assaying the expression of the proteins (see FIG. 1).

Structure (SMILES) | viability of the keratinocytes by protein assay (keratinocytes) | decrease of viability of the melanocytes relative to the control group (melanocytes) | reduction of the viability of the melanocytes (melanocytes) | mortality rate of melanocytes versus control group (melanocytes; EC+10 sequence (+10° C.), control at +23° C.) | viability of the melanocytes, sequence EC-10 (−10° C.) compared with EC00 (0° C.) (melanocytes; EC-10 vs EC00, start 34° C., room temperature 23° C.) | irritant effect (IL-1β marker) [1] | skin pigmentation in biopsies [2] | pigment change of skin (skin pigmentation)
CC(F)F [cryogenic gas, 1,1-difluoroethane] | a reduction in the viability of the keratinocytes | 40% | about 40% | very different from that obtained for the control group | remains the same | less than that observed with a dose making it possible to achieve subzero temperatures |  | 
N#N [liquid nitrogen] |  |  |  |  |  |  | reduces skin pigmentation | hypopigmentation persists
